Results published in patent US10131652B2, “Pyrimidinyloxy benzene derivatives as herbicides” (E. I. DU PONT DE NEMOURS AND COMPANY, priority 2014, dated 2018).
Where two headings read alike, the source gives them in different places.

Key:
Type in all cases: in vivo
kochia (Kochia scoparia) [1] = assay: Test D postemergence plant response
How it was run: (§1)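 The formulated test chemicals were applied over the foliage of young potted plants (2 to 18 cm tall), which were then held under greenhouse conditions. Between days 13 and 15 each species was rated by eye versus controls, from 0 for no effect up to 100 for complete control.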

wild oat (Avena fatua) = assay: Test D postemergence plant response
How it was run: as §1

kochia (Kochia scoparia) [2] = assay: Test F pre-/postemergence plant response; details: scale 0 to 100; for pest or weed control at 31 g/ha / pest or weed control at 62 g/ha: Bassia scoparia, read-out: Plant response rating, Kochia; for pest or weed control at 31 g/ha: 31 g ai/ha
How it was run: (§2)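 In a greenhouse, compounds carried in a non-phytotoxic surfactant-containing solvent mixture were applied to soil at planting and to young 1- to 4-leaf plants. About two to three weeks (14 to 21 days) afterward, each species was compared with controls and rated visually from 0 to 100.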

[3] = system: palmer pigweed (Amaranthus palmeri); assay: Test F pre-/postemergence plant response; details: scale 0 to 100; for pest or weed control at 31 g/ha / pest or weed control at 62 g/ha: Amaranthus palmeri, read-out: Plant response rating, Pigweed, Palmer
How it was run: as §2

[4] = system: Italian ryegrass (Lolium multiflorum); assay: Test F pre-/postemergence plant response; details: scale 0 to 100; for pest or weed control at 31 g/ha / pest or weed control at 62 g/ha: Lolium multiflorum, read-out: Plant response rating, Ryegrass, Italian; for pest or weed control at 31 g/ha: 31 g ai/ha
How it was run: as §2

[5] = system: nightshade (eastern black nightshade, Solanum ptycanthum); assay: Test F pre-/postemergence plant response; details: scale 0 to 100
How it was run: as §2

[6] = system: waterhemp_RES1 (ALS & Triazine resistant common waterhemp, Amaranthus rudis); assay: Test F postemergence plant response; details: scale 0 to 100
How it was run: (§3)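 Rated visually versus controls, 0 (no effect) to 100 (complete control), after 14–21 days in greenhouse. Compounds were sprayed postemergence on seedlings at 1- to 4-leaf stage, 2–18 cm tall.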

[7] = system: waterhemp_RES2 (ALS & HPPD resistant common waterhemp, Amaranthus rudis); assay: Test F postemergence plant response; details: scale 0 to 100
How it was run: as §3

kochia (Kochia scoparia) [8] = assay: Test B pre-/postemergence plant response
How it was run: (§4)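 Evaluation is visual, about 10 days after application, rating injury from 0 (none) to 100 (complete control) relative to untreated controls. Application was a preemergence soil spray on seeded pots or a postemergence spray on one- to two-leaf plants.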

[9] = system: ragweed (common ragweed, Ambrosia elatior); assay: Test B pre-/postemergence plant response
How it was run: as §4

[10] = system: Italian ryegrass (Lolium multiflorum); assay: Test B pre-/postemergence plant response
How it was run: as §4

[11] = post-emergence, 62 g ai/ha, Postemergence
[12] = Postemergence, 1000 g ai/ha, 0 to 100 scale (0 no effect, 100 complete control)
[13] = Preemergence, 1000 g ai/ha, 0 to 100 scale (0 no effect, 100 complete control)
[14] = 16 g ai/ha, scale 0 to 100 (0 no effect, 100 complete control)
[15] = 31 g ai/ha, scale 0 to 100 (0 no effect, 100 complete control)
[16] = 62 g ai/ha, scale 0 to 100, 0 no effect, 100 complete control
[17] = 125 g ai/ha, scale 0 to 100, 0 no effect, 100 complete control
[18] = 125 g ai/ha, postemergence, 0 to 100 scale, 0 no effect, 100 complete control
[19] = Postemergence, 500 g ai/ha, 0 to 100 scale (0 no effect, 100 complete control)
[20] = Preemergence, 125 g ai/ha, 0 to 100 scale where 0 is no effect and 100 is complete control
[21] = Preemergence, 500 g ai/ha, 0 to 100 scale where 0 is no effect and 100 is complete control

Structure (SMILES): Fc1cccc(Oc2ncc(Cl)cn2)c1-c1cc(C(F)F)on1 [Compound 55, 5-chloro-2-[2-[5-(difluoromethyl)-3-isoxazolyl]-3-fluorophenoxy]pyrimidine]
- pest or weed control at 16 g/ha (kochia (Kochia scoparia) [1]; Bassia scoparia, post-emergence, 16 g ai/ha, scale 0 to 100 (0 no effect, 100 complete control), read-out: Kochia plant response rating): 98%
- pest or weed control at 31 g/ha (kochia (Kochia scoparia) [1]; Bassia scoparia, post-emergence, 31 g ai/ha, scale 0 to 100 (0 no effect, 100 complete control), read-out: Kochia plant response rating): 100%
- pest or weed control at 62 g/ha (kochia (Kochia scoparia) [1]; Bassia scoparia, post-emergence, 62 g ai/ha, scale 0 to 100, 0 no effect, 100 complete control, read-out: Plant response rating, Kochia): 100%
- pest or weed control at 125 g/ha (kochia (Kochia scoparia) [1]; Bassia scoparia, post-emergence, 125 g ai/ha, scale 0 to 100, 0 no effect, 100 complete control, read-out: Plant response rating, Kochia): 100%
- pest or weed control at 16 g/ha (wild oat (Avena fatua); Avena fatua, post-emergence, 16 g ai/ha, scale 0 to 100 (0 no effect, 100 complete control), read-out: Oat, Wild plant response rating): 5%
- pest or weed control at 31 g/ha (wild oat (Avena fatua); Avena fatua, post-emergence, 31 g ai/ha, scale 0 to 100 (0 no effect, 100 complete control), read-out: Oat, Wild plant response rating): 15%
- pest or weed control at 62 g/ha (wild oat (Avena fatua); Avena fatua, post-emergence, 62 g ai/ha, scale 0 to 100, 0 no effect, 100 complete control, read-out: Plant response rating, Oat, Wild): 40%
- pest or weed control at 125 g/ha (wild oat (Avena fatua); Avena fatua, post-emergence, 125 g ai/ha, scale 0 to 100, 0 no effect, 100 complete control, read-out: Plant response rating, Oat, Wild): 40%
- pest or weed control at 31 g/ha (kochia (Kochia scoparia) [2]; post-emergence, Postemergence): 95%
- pest or weed control at 62 g/ha (kochia (Kochia scoparia) [2]; [11]): 98%
- pest or weed control at 31 g/ha (kochia (Kochia scoparia) [2]; pre-emergence, Preemergence): 100%
- pest or weed control at 62 g/ha (kochia (Kochia scoparia) [2]; pre-emergence, Preemergence): 100%
- pest or weed control at 31 g/ha ([3]; post-emergence, 31 g ai/ha Postemergence): 98%
- pest or weed control at 62 g/ha ([3]; post-emergence, 62 g ai/ha Postemergence): 98%
- pest or weed control at 31 g/ha ([3]; pre-emergence, 31 g ai/ha Preemergence): 75%
- pest or weed control at 62 g/ha ([3]; pre-emergence, Preemergence): 100%
- pest or weed control at 31 g/ha ([4]; post-emergence, Postemergence): 0%
- pest or weed control at 62 g/ha [4, 11]: 10%
- pest or weed control at 31 g/ha ([4]; pre-emergence, Preemergence): 0%
- pest or weed control at 62 g/ha ([4]; pre-emergence, Preemergence): 30%
- pest or weed control at 31 g/ha ([5]; Solanum, pre-emergence, 31 g ai/ha Preemergence, read-out: Plant response rating, Nightshade): 98%
- pest or weed control at 62 g/ha ([5]; Solanum, pre-emergence, Preemergence, read-out: Plant response rating, Nightshade): 98%
- Plant response rating, Waterhemp_RES1 ([6]; 31 g ai/ha Postemergence): 100
- Plant response rating, Waterhemp_RES1 ([6]; 62 g ai/ha Postemergence): 100
- Plant response rating, Waterhemp_RES2 ([7]; 31 g ai/ha Postemergence): 100
- Plant response rating, Waterhemp_RES2 ([7]; 62 g ai/ha Postemergence): 100
- Plant response rating, Kochia (kochia (Kochia scoparia) [8]; [12]): 100
- Plant response rating, Kochia (kochia (Kochia scoparia) [8]; [13]): 100
- Plant response rating, Ragweed [9, 12]: 100
- Plant response rating, Ragweed [9, 13]: 100
- Plant response rating, Ryegrass, Italian [10, 12]: 100
- Plant response rating, Ryegrass, Italian [10, 13]: 100

Structure (SMILES): Cc1cc(-c2ccccc2Oc2ncc(Cl)cn2)on1 [Compound 58]
- Kochia plant response rating (kochia (Kochia scoparia) [1]; [14]): 35
- Kochia plant response rating (kochia (Kochia scoparia) [1]; [15]): 50
- Plant response rating, Kochia (kochia (Kochia scoparia) [1]; [16]): 60
- Plant response rating, Kochia (kochia (Kochia scoparia) [1]; [17]): 80
- Oat, Wild plant response rating (wild oat (Avena fatua); [14]): 0
- Oat, Wild plant response rating (wild oat (Avena fatua); [15]): 0
- Plant response rating, Oat, Wild (wild oat (Avena fatua); [16]): 0
- Plant response rating, Oat, Wild (wild oat (Avena fatua); [17]): 0
- Plant response rating, Kochia (kochia (Kochia scoparia) [2]; 8 g ai/ha Postemergence): 30
- Plant response rating, Kochia (kochia (Kochia scoparia) [2]; 8 g ai/ha Preemergence): 0
- Plant response rating, Kochia (kochia (Kochia scoparia) [2]; 16 g ai/ha Postemergence): 40
- Plant response rating, Kochia (kochia (Kochia scoparia) [2]; 16 g ai/ha Preemergence): 0
- Plant response rating, Kochia (kochia (Kochia scoparia) [2]; 31 g ai/ha Postemergence): 30
- Plant response rating, Kochia (kochia (Kochia scoparia) [2]; 31 g ai/ha Preemergence): 0
- Plant response rating, Kochia (kochia (Kochia scoparia) [2]; 62 g ai/ha Postemergence): 60
- Plant response rating, Kochia (kochia (Kochia scoparia) [2]; 125 g ai/ha Postemergence): 75
- Plant response rating, Kochia (kochia (Kochia scoparia) [2]; 125 g ai/ha Preemergence): 30
- Plant response rating, Kochia (kochia (Kochia scoparia) [2]; Preemergence): 0
- Plant response rating, Pigweed, Palmer ([3]; 8 g ai/ha Postemergence): 50
- Plant response rating, Pigweed, Palmer ([3]; 8 g ai/ha Preemergence): 0
- Plant response rating, Pigweed, Palmer ([3]; 16 g ai/ha Postemergence): 50
- Plant response rating, Pigweed, Palmer ([3]; 16 g ai/ha Preemergence): 0
- Plant response rating, Pigweed, Palmer ([3]; 31 g ai/ha Postemergence): 50
- Plant response rating, Pigweed, Palmer ([3]; 31 g ai/ha Preemergence): 0
- Plant response rating, Pigweed, Palmer ([3]; 62 g ai/ha Postemergence): 70
- Plant response rating, Pigweed, Palmer ([3]; 125 g ai/ha Postemergence): 60
- Plant response rating, Pigweed, Palmer ([3]; 125 g ai/ha Preemergence): 35
- Plant response rating, Pigweed, Palmer ([3]; Preemergence): 35
- Plant response rating, Ryegrass, Italian ([4]; 8 g ai/ha Postemergence): 0
- Plant response rating, Ryegrass, Italian ([4]; 8 g ai/ha Preemergence): 0
- Plant response rating, Ryegrass, Italian ([4]; 16 g ai/ha Postemergence): 0
- Plant response rating, Ryegrass, Italian ([4]; 16 g ai/ha Preemergence): 0
- Plant response rating, Ryegrass, Italian ([4]; 31 g ai/ha Postemergence): 0
- Plant response rating, Ryegrass, Italian ([4]; 31 g ai/ha Preemergence): 0
- Plant response rating, Ryegrass, Italian ([4]; 62 g ai/ha Postemergence): 0
- Plant response rating, Ryegrass, Italian ([4]; 125 g ai/ha Postemergence): 0
- Plant response rating, Ryegrass, Italian ([4]; 125 g ai/ha Preemergence): 0
- Plant response rating, Ryegrass, Italian ([4]; Preemergence): 0
- Plant response rating, Nightshade ([5]; 8 g ai/ha Preemergence): 0
- Plant response rating, Nightshade ([5]; 16 g ai/ha Preemergence): 65
- Plant response rating, Nightshade ([5]; 31 g ai/ha Preemergence): 80
- Plant response rating, Nightshade ([5]; 125 g ai/ha Preemergence): 98
- Plant response rating, Nightshade ([5]; Preemergence): 90
- Plant response rating, Waterhemp_RES1 ([6]; 8 g ai/ha Postemergence): 10
- Plant response rating, Waterhemp_RES1 ([6]; 16 g ai/ha Postemergence): 20
- Plant response rating, Waterhemp_RES1 ([6]; 31 g ai/ha Postemergence): 65
- Plant response rating, Waterhemp_RES1 ([6]; 62 g ai/ha Postemergence): 70
- Plant response rating, Waterhemp_RES1 ([6]; 125 g ai/ha Postemergence): 75
- Plant response rating, Waterhemp_RES2 ([7]; 8 g ai/ha Postemergence): 65
- Plant response rating, Waterhemp_RES2 ([7]; 16 g ai/ha Postemergence): 60
- Plant response rating, Waterhemp_RES2 ([7]; 31 g ai/ha Postemergence): 70
- Plant response rating, Waterhemp_RES2 ([7]; 62 g ai/ha Postemergence): 75
- Plant response rating, Waterhemp_RES2 ([7]; 125 g ai/ha Postemergence): 80
- Plant response rating, Kochia (kochia (Kochia scoparia) [8]; [18]): 100
- Plant response rating, Kochia (kochia (Kochia scoparia) [8]; [19]): 100
- Plant response rating, Kochia (kochia (Kochia scoparia) [8]; [20]): 80
- Plant response rating, Kochia (kochia (Kochia scoparia) [8]; [21]): 100
- Plant response rating, Ragweed [9, 18]: 100
- Plant response rating, Ragweed [9, 19]: 100
- Plant response rating, Ragweed [9, 20]: 70
- Plant response rating, Ragweed [9, 21]: 80
- Plant response rating, Ryegrass, Italian [10, 18]: 20
- Plant response rating, Ryegrass, Italian [10, 19]: 80
- Plant response rating, Ryegrass, Italian [10, 20]: 0
- Plant response rating, Ryegrass, Italian [10, 21]: 20
